Tested on: isolated guinea pig gallbladder
Experiment: Functional activity in isolated guinea pig gallbladder preparation
Format: cell-based
Settings: expressed as % CCK-induced maximal response; for activation at 1 µM / activation at 30 µM: Cavia porcellus; for activation at 1 µM / %Contraction (1 × 10^-6 M): 1 × 10^-6 M test compound; for activation at 1 µM: read-out: %Contraction (1 × 10^-6 M); for activation at 30 µM / % Contraction (3 × 10^-5 M): 3 × 10^-5 M test compound; for activation at 30 µM: read-out: % Contraction (3 × 10^-5 M)
Protocol: 3. GUINEA PIG GALL BLADDER ASSAY
Gallbladders are removed from guinea pigs sacrificed by cervical dislocation. The isolated gallbladders are cleaned of adherent connective tissue and cut into two rings from each animal (2-4 mm in length). The rings are subsequently suspended in organ chambers containing a physiological salt solution (118.4 mM NaCl, 4.7 mM KCl, 1.2 mM MgSO4, 2.5 mM CaCl2, 1.2 mM KH2 […], 25 mM NaHCO3, 11.1 mM dextrose). The bathing solution is maintained at 37° C. and aerated with 95% O2 /5% CO2. Tissues are connected via gold chains and stainless steel mounting wires to isometric force displacement transducers (Grass, Model FT03 D). Responses are then recorded on a polygraph (Grass, Model 7E).
Rings are gradually stretched (over a 120 min. period) to a basal resting tension of 1 gm which is maintained throughout the experiment. During the basal tension adjustment period, the rings are exposed to acetylcholine (10^-6 M) four times to verify tissue contractility. The tissues are then exposed to a submaximal dose of sulfated CCK-8 (Sigma, 3×10^-9 M). After obtaining a stable response, the tissues are washed out 3 times rapidly and every 5 to 10 minutes for 1 hour to reestablish a stable baseline.
Compounds are dissolved in dimethylsulfoxide ([…]) followed by a concentration-response curve to sulfated CCK-8 (10^-10 to 10^-6 M) in the presence of the highest dose of the test compound. As a final test, ACH (10 mM) is added to induce maximal contraction. A minimum of three determinations of activity are made for each test compound.

SMILES | activation at 1 µM | activation at 30 µM | also measured
COc1ccc(N(C(=O)CN2C(=O)C(C)(Cc3n[nH]c4ccccc34)C(=O)N(c3cccnc3)c3ccccc32)C(C)C)cc1 (single isomer, unassigned) [Example 75, 2-[3-(1H-indazol-3-ylmethyl)-3-methyl-2,4-dioxo-5-pyridin-3-yl-2,3,4,5-tetrahydro-benzo[b][1,4]diazepin-1-yl]-N-isopropyl-N-(4-methoxy-phenyl)-acetamide] | 102% | 82% | –
COc1ccc(N(C(=O)CN2C(=O)C(Cc3n[nH]c4ccccc34)C(=O)N(c3cccnc3)c3ccccc32)C(C)C)cc1 (single isomer, unassigned; (+)) [Example 72, (+)-2-[3-(1H-Indazol-3-ylmethyl)-2,4-dioxo-5-pyridin-3-yl-2,3,4,5-tetrahydrobenzo[b][1,4]diazepin-1-yl]-N-isopropyl-N-(4-methoxyphenyl) acetamide] | – | – | %Contraction (1 × 10^-6 M): 104%; % Contraction (3 × 10^-5 M): 93%
COc1ccc(N(C(=O)CN2C(=O)C(Cc3n[nH]c4ccccc34)C(=O)N(c3cccnc3)c3ccccc32)C(C)C)cc1 (single isomer, unassigned; (-)) [Example 73, (-)-2-[3-(1H-Indazol-3-ylmethyl)-2,4-dioxo-5-pyridin-3-yl-2,3,4,5-tetrahydrobenzo[b][1,4]diazepin-1-yl]-N-isopropyl-N-(4-methoxyphenyl) acetamide] | – | – | %Contraction (1 × 10^-6 M): 58%; % Contraction (3 × 10^-5 M): 64%
CCOC(=O)c1cccc(NC(=O)CC2C(=O)N(CC(=O)N(c3ccccc3)C(C)C)c3ccccc3N(c3ccccc3)C2=O)c1 (stereo not shown) [Example 1] | – | 64% | –
CC(C)N(C(=O)CN1C(=O)C(CC(=O)Nc2cccc(C(=O)O)c2)C(=O)N(c2ccccc2)c2ccccc21)c1ccccc1 (stereo not shown) [Example 2] | – | 94% | –
CC(C)N(C(=O)CN1C(=O)C(C)(CC(=O)Nc2cccc(C(=O)O)c2)C(=O)N(c2ccccc2)c2ccccc21)c1ccccc1 (stereo not shown) [Example 3, 2-[2,4-Dioxo-5-phenyl-3-methyl-3-(3-carboxyphenyl)carbamoylmethyl-2,3,4,5-tetrahydro-benzo[b][1,4]diazepin-1-yl]-N-isopropyl-N-phenyl acetamide] | 75% | 102% | –
CC(C)N(C(=O)CN1C(=O)C(C)(CC(=O)Nc2ccccc2)C(=O)N(c2ccccc2)c2ccccc21)c1ccccc1 (stereo not shown) [Example 4, 2-(2,4-Dioxo-5-phenyl-3-methyl-3-phenylcarbamoylmethyl-2,3,4,5-tetrahydro-benzo[b][1,4]diazepin-1-yl)-N-isopropyl-N-phenyl acetamide] | 80% | 79% | –
CC(C)N(C(=O)CN1C(=O)C(C)(CC(=O)N(C)c2ccccc2)C(=O)N(c2ccccc2)c2ccccc21)c1ccccc1 (stereo not shown) [Example 5, 2-(2,4-Dioxo-5-phenyl-3-methyl-N-methyl-3-phenylcarbamoylmethyl-2,3,4,5-tetrahydro-benzo[b][1,4]diazepin-1-yl)-N-isopropyl-N-phenyl acetamide] | 9% | – | –
CC(C)N(C(=O)CN1C(=O)C(C)(CCNc2ccccc2)C(=O)N(c2ccccc2)c2ccccc21)c1ccccc1 (stereo not shown) [Example 6, N-Isopropyl-2-[3-methyl-2,4-dioxo-5-phenyl-3-(2-phenylaminoethyl)-2,3,4,5-tetrahydro-benzo[b][1,4]diazepin-1-yl]-N-phenyl acetamide] | 7% | – | –
CC(C)N(C(=O)CN1C(=O)C(C)(CC(=O)c2ccccc2)C(=O)N(c2ccccc2)c2ccccc21)c1ccccc1 (stereo not shown) [Example 7, N-Isopropyl-2-[3-methyl-2,4-dioxo-3-(2-phenyl-2-oxoethyl)-5-phenyl-2,3,4,5-tetrahydro-benzo[b][1,4]diazepin-1-yl]-N-phenyl acetamide] | – | – | %Contraction (1 × 10^-6 M): 15%
CC(C)N(C(=O)CN1C(=O)C(C)(C(C)C(=O)c2ccccc2)C(=O)N(c2ccccc2)c2ccccc21)c1ccccc1 (stereo not shown) [Example 8, N-Isopropyl-2-[3-methyl-2,4-dioxo-3-(1-phenyl-1-oxoprop-2-yl)-5-phenyl-2,3,4,5-tetrahydro-benzo[b][1,4]diazepin-1-yl]-N-phenyl acetamide] | – | – | %Contraction (1 × 10^-6 M): 16%
CC(C)N(C(=O)CN1C(=O)C(C)(CC(=O)Nc2ccccc2N)C(=O)N(c2ccccc2)c2ccccc21)c1ccccc1 (stereo not shown) [Example 9, 2-[3-(2-Amino-phenylcarbamoylmethyl)-3-methyl-2,4-dioxo-5-phenyl-2,3,4,5-tetrahydro-benzo[b][1,4]diazepin-1-yl]-N-isopropyl-N-phenyl acetamide] | 31% | – | –
CC(C)N(C(=O)CN1C(=O)C(C)(Cc2noc(-c3ccccc3)n2)C(=O)N(c2ccccc2)c2ccccc21)c1ccccc1 (stereo not shown) [Example 10, N-Isopropyl-2-[3-methyl-2,4-dioxo-5-phenyl-3-(5-phenyl-[1,2,4]oxadiazol-3-ylmethyl)-2,3,4,5-tetrahydro-benzo[b][1,4]diazepin-1-yl]-N-phenyl acetamide] | 7% | – | –
CC(C)N(C(=O)CN1C(=O)C(C)(CC=Cc2ccccc2)C(=O)N(c2ccccc2)c2ccccc21)c1ccccc1 (stereo not shown) [Example 11, N-Isopropyl-2-[3-methyl-2,4-dioxo-5-phenyl-3-(3-phenyl-allyl)-2,3,4,5-tetrahydro-benzo[b][1,4]diazepin-1-yl]-N-phenyl acetamide] | 10% | – | –
CC(C)N(C(=O)CN1C(=O)C(C)(CCCc2ccccc2)C(=O)N(c2ccccc2)c2ccccc21)c1ccccc1 (stereo not shown) [Example 12, N-Isopropyl-2-[3-methyl-2,4-dioxo-5-phenyl-3-(3-phenyl-propyl)-2,3,4,5-tetrahydro-benzo[b][1,4]diazepin-1-yl]-N-phenyl acetamide] | 19% | – | –
CC(C)N(C(=O)CN1C(=O)C(C)(CC(N)=O)C(=O)N(c2ccccc2)c2ccccc21)c1ccccc1 (stereo not shown) [Example 13, 2-[1-(Isopropyl-phenyl-carbamoylmethyl)-3-methyl-2,4-dioxo-5-phenyl-2,3,4,5-tetrahydro-1H-benzo[b][1,4]diazepine-3-yl]acetamide] | 6% | – | –
COc1ccc(N(C(=O)CN2C(=O)C(C)(CC(=O)Nc3ccccc3)C(=O)N(c3ccccc3)c3ccccc32)C(C)C)cc1 (stereo not shown) [Example 14, N-Isopropyl-N-(4-methoxy-phenyl)-2-(3-methyl-2,4-dioxo-5-phenyl-3-phenylcarbamoylmethyl-2,3,4,5-tetrahydro-benzo[b][1,4]diazepin-1-yl) acetamide] | – | 64% | –
CC(C)N(C(=O)CN1C(=O)C(C)(CCCC(=O)Nc2ccccc2)C(=O)N(c2ccccc2)c2ccccc21)c1ccccc1 (stereo not shown) [Example 15, N-Isopropyl-N-phenyl-2-(3-methyl-2,4-dioxo-5-phenyl-3-phenylcarbamoylpropyl-2,3,4,5-tetrahydro-benzo[b][1,4]diazepin-1-yl) acetamide] | 54% | – | –
CCC1(CC(=O)Nc2ccccc2)C(=O)N(CC(=O)N(c2ccccc2)C(C)C)c2ccccc2N(c2ccccc2)C1=O (stereo not shown) [Example 16, 2-(3-Ethyl-2,4-dioxo-5-phenyl-3-phenylcarbamoylmethyl-2,3,4,5-tetrahydro-benzo[b][1,4]diazepin-1-yl)-N-isopropyl-N-phenyl-acetamide] | – | 54% | –
COc1ccc(N(C(=O)CN2C(=O)C(CC(=O)Nc3ccccc3)C(=O)N(c3ccccc3)c3ccccc32)C(C)C)cc1 (stereo not shown) [Example 17, 2-(2,4-dioxo-5-phenyl-3-phenylcarbamoylmethyl-2,3,4,5-tetrahydro-benzo[b][1,4]diazepin-1-yl)-N-isopropyl-N-(4-methoxy-phenyl)-acetamide] | 48% | 55% | –
CC(C)N(C(=O)CN1C(=O)C(C)(Cc2cc3ccccc3[nH]2)C(=O)N(c2ccccc2)c2ccccc21)c1ccccc1 (stereo not shown) [Example 18, 2-[3-(1H-indol-2-ylmethyl)-3-methyl-2,4-dioxo-5-phenyl-2,3,4,5-tetrahydro-benzo[b][1,4]diazepin-1-yl]-N-isopropyl-N-phenyl acetamide] | – | 3% | –
CC(C)N(C(=O)CN1C(=O)C(C)(Cc2c[nH]c3ccccc23)C(=O)N(c2ccccc2)c2ccccc21)c1ccccc1 (stereo not shown) [Example 19, 2-[3-(1H-indol-3-ylmethyl)-3-methyl-2,4-dioxo-5-phenyl-2,3,4,5-tetrahydro-benzo[b][1,4]diazepin-1-yl]-N-isopropyl-N-phenyl acetamide] | – | 76% | –
COc1ccc(N(C(=O)CN2C(=O)C(Cc3cc4ccccc4[nH]3)(OC)C(=O)N(c3ccccc3)c3ccccc32)C(C)C)cc1 (stereo not shown) [Example 20, 2-[3-(1H-indol-2-ylmethyl)-3-methoxy-2,4-dioxo-5-phenyl-2,3,4,5-tetrahydro-benzo[b][1,4]diazepin-1-yl]-N-isopropyl-N-(4-methoxyphenyl) acetamide] | – | 66% | –
COc1ccc(N(C(=O)CN2C(=O)C(CC(=O)Nc3ccccc3)(OC)C(=O)N(c3ccccc3)c3ccccc32)C(C)C)cc1 (stereo not shown) [Example 21, N-Isopropyl-2-(3-methoxy-2,4-dioxo-5-phenyl-3-phenylcarbamoylmethyl-2,3,4,5-tetrahydro-benzo[b][1,4]diazepin-1-yl)-N-(4-methoxy-phenyl)-acetamide] | 80% | 90% | –

Reference: patent US5859007A, “CCK or gastrin modulating benzo [b][1,4] diazepines derivatives” (Glaxo Wellcome Inc., priority 1994, dated 1999)
